Test results: patent US20220257595A1, “MACITENTAN FOR USE IN TREATING PORTOPULMONARY HYPERTENSION” (ACTELION PHARMACEUTICALS LTD, priority 2019, published 2022)

Key:
patients with PoPH [1] = experiment: PORTICO: 6-minute walk test (6MWD); assay type: in vivo, human
Description: (iv) 6-minute walk test, including Borg dyspnea index: The 6MWT was performed at Screening, Baseline (Visit 2/Randomization), and then every Visit until EOT-DB or EOT-OL, whichever came last. It is a non-encouraged test that measures the distance walked by the patient in six minutes. It is important that for each individual patient the 6MWT was conducted under the same conditions throughout the study (e.g., same location, same tester, same time of day, with or without nasal oxygen therapy and where applicable with same flow rate as Baseline). The Borg dyspnea index was evaluated after each 6MWT. It rates dyspnea on a scale from 0 to 10.
(§1) Handling of missing data: For change from baseline to Weeks 4, 8 and 12 in 6MWD and WHO FC, the last available value (including baseline) was carried forward unless the patient died before, or on Day 42, 70, 98 (the upper limit treatment days of Weeks 4, 8 and 12 windows, respectively), in which case the following rules considering worst case were used to replace all the missing values from the week after death up to Week 12: • For 6MWD, worst fixed value was set to 0, • For WHO FC, worst fixed value was set to class IV, • For change from baseline to Week 12 in NT-proBNP, the same imputation rule as for PVR was applied as described herein.
(§2) Statistical analysis: The change from baseline to Week 12 in mRAP, mPAP, cardiac index, TPR and SVO2 were analyzed on the FAS (with imputation) using an ANCOVA with factors for treatment group, background PAH-specific therapy at baseline (Yes/No as per IXRS, randomization stratification factor), region (Europe/North America/Latin America as per IXRS, randomization stratification factor) and a covariate for baseline corresponding variable. Other RHC variables are listed only. WHO FC is summarized on the FAS (with imputation) by time point and treatment group using frequency tables. Changes from baseline in WHO FC were dichotomized as worsening (i.e., change >0) versus no change or improvement (i.e., change ≤0). Worsening was analyzed using a logistic regression model (exact) with covariates for treatment group, background PAH-specific therapy at baseline (Yes/No as per IXRS, randomization stratification factor) and region (Europe/North America/Latin America as per IXRS, randomization stratification factor). 6MWD is summarized on the FAS (with imputation) by time point and treatment group using descriptive statistics. Change from baseline to each time point is summarized similarly. Change from baseline in 6MWD (up to Week 12) was analyzed using a mixed-effect model repeated measure (MMRM) with factors for treatment group, time point, treatment by time interaction, background PAH-specific therapy at baseline (Yes/No as per IXRS, randomization stratification factor) and region (Europe/North America/Latin America as per IXRS, randomization stratification factor), and covariates for baseline 6MWD and WHO FC. An unstructured covariance matrix was used to account for the correlation between repeated measurements from the same patient. NT-proBNP is summarized on the FAS (with imputation) by time point and treatment group using descriptive statistics as well as geometric means and CVs. The ratio of Week 12 to baseline NT-proBNP is summarized similarly. The ratio versus baseline in NT-proBNP was log-transformed and analyzed using an ANCOVA with covariates for treatment group, background PAH-specific therapy at baseline (Yes/No as per IXRS, randomization stratification factor), region (Europe/North America/Latin America as per IXRS, randomization stratification factor) and baseline log NT-proBNP.
Supportive/sensitivity analyses: The main MMRM model analysis for 6MWD was also performed without stratification factors. […]

patients with PoPH [2] = experiment: PORTICO: WHO functional class; assay type: in vivo, human
Description: (iii) WHO functional class: WHO FC was evaluated at Screening, Baseline (Visit 2/Randomization), and then every visit until EOT-DB or EOT-OL, whichever came last.
as §1, §2
Macitentan treatment period: Changes from macitentan baseline to each time point in WHO FC, 6MWD, NT-pro BNP and Borg dyspnea index (related to the macitentan treatment period) are summarized for the MTS using descriptive statistics.

[3] = 10 mg o.d., FAS with imputation, N=43
[4] = MTS without imputation, macitentan in both DB and OL periods
[5] = MTS without imputation, macitentan only in OL period (DB placebo patients)

CCCNS(=O)(=O)Nc1ncnc(OCCOc2ncc(Br)cn2)c1-c1ccc(Br)cc1 [macitentan, N-[5-(4-Bromophenyl)-6-[2-[(5-bromo-2-pyrimidinyl)oxy]ethoxy]-4-pyrimidinyl]-N′-propylsulfamide]
6MWD at Week 4, mean ± SD (patients with PoPH [1]; [3]): 392.5 ± 93.74 m
6MWD at Week 8, mean ± SD (patients with PoPH [1]; [3]): 390.3 ± 99.35 m
6MWD at Week 12, mean ± SD (patients with PoPH [1]; [3]): 392.2 ± 98.46 m
Change from baseline to Week 4 in 6MWD, mean ± SD (patients with PoPH [1]; [3]): 6.7 ± 44.55 m
Change from baseline to Week 8 in 6MWD, mean ± SD (patients with PoPH [1]; [3]): 4.5 ± 67.40 m
Change from baseline to Week 12 in 6MWD, mean ± SD (patients with PoPH [1]; [3]): 6.4 ± 65.74 m
LS mean difference (macitentan-placebo), change in 6MWD to Week 12, ANCOVA sensitivity analysis (patients with PoPH [1]; FAS): 10.05 m
Difference in LS means macitentan-placebo, change in 6MWD at Week 4 (patients with PoPH [1]; MMRM, FAS): 23.02 m
Difference in LS means macitentan-placebo, change in 6MWD at Week 8 (patients with PoPH [1]; MMRM, FAS): 14.47 m
Difference in LS means macitentan-placebo, change in 6MWD at Week 12 (patients with PoPH [1]; MMRM, FAS): 9.73 m
Difference in LS means macitentan-placebo, change in 6MWD, overall (patients with PoPH [1]; MMRM, FAS, Weeks 4-12 overall): Overall: 15.74 m
Mean (±SD) change from baseline in 6MWD at Week 4 (patients with PoPH [1]; [4]): 7.0±45.62 m
Mean (±SD) change from baseline in 6MWD at Week 24 (patients with PoPH [1]; [4]): 22.0±42.55 m
Mean (±SD) change from macitentan baseline in 6MWD at Week 4 (patients with PoPH [1]; [5]): 11.5±31.67 m
Mean (±SD) change from macitentan baseline in 6MWD at Week 12 (patients with PoPH [1]; [5]): 13.9±39.27 m
Mean (±SD) observed difference at Week 12 (macitentan-placebo) in 6MWD (patients with PoPH [1]; no imputation): 18.4 m
Increase in walk distance from baseline to Week 24 (patients with PoPH [1]; patients originally randomised to macitentan, followed into open-label period): 20 m
WHO FC Class I at Week 12, total (patients with PoPH [2]; FAS with imputation, N=43): 3 (7.0) n (%)
WHO FC Class II at Week 12, total (patients with PoPH [2]; FAS with imputation, N=43): 27 (62.8) n (%)
WHO FC Class III at Week 12, total (patients with PoPH [2]; FAS with imputation, N=43): 13 (30.2) n (%)
WHO FC Class IV at Week 12, total (patients with PoPH [2]; FAS with imputation, N=43): 0 n (%)
WHO FC Improved, baseline to Week 12 (patients with PoPH [2]; FAS with imputation, N=43): 9 (20.9) n (%)
WHO FC Not Worsened, baseline to Week 12 (patients with PoPH [2]; FAS with imputation, N=43): 37 (86.0) n (%)
WHO FC Unchanged, baseline to Week 12 (patients with PoPH [2]; FAS with imputation, N=43): 28 (65.1) n (%)
WHO FC Worsened, baseline to Week 12 (patients with PoPH [2]; FAS with imputation, N=43): 6 (14.0) n (%)
WHO FC shift: baseline Class I to Week 12 Class I (patients with PoPH [2]; FAS with imputation, N=43): 1 (2.3) n (%)
WHO FC shift: baseline Class I to Week 12 Class II (patients with PoPH [2]; FAS with imputation, N=43): 0 n (%)
WHO FC shift: baseline Class I to Week 12 Class III (patients with PoPH [2]; FAS with imputation, N=43): 0 n (%)
WHO FC shift: baseline Class I to Week 12 Class IV (patients with PoPH [2]; FAS with imputation, N=43): 0 n (%)
WHO FC shift: baseline Class II to Week 12 Class I (patients with PoPH [2]; FAS with imputation, N=43): 1 (2.3) n (%)
WHO FC shift: baseline Class II to Week 12 Class II (patients with PoPH [2]; FAS with imputation, N=43): 20 (46.5) n (%)
WHO FC shift: baseline Class II to Week 12 Class III (patients with PoPH [2]; FAS with imputation, N=43): 6 (14.0) n (%)
WHO FC shift: baseline Class II to Week 12 Class IV (patients with PoPH [2]; FAS with imputation, N=43): 0 n (%)
WHO FC shift: baseline Class III to Week 12 Class I (patients with PoPH [2]; FAS with imputation, N=43): 1 (2.3) n (%)
WHO FC shift: baseline Class III to Week 12 Class II (patients with PoPH [2]; FAS with imputation, N=43): 7 (16.3) n (%)
WHO FC shift: baseline Class III to Week 12 Class III (patients with PoPH [2]; FAS with imputation, N=43): 7 (16.3) n (%)
WHO FC shift: baseline Class III to Week 12 Class IV (patients with PoPH [2]; FAS with imputation, N=43): 0 n (%)
Patients with no change in WHO FC at Week 12 (patients with PoPH [2]; FAS, macitentan group): 65.1%
Patients with worsening in WHO FC at Week 12 (patients with PoPH [2]; FAS, macitentan group, 6 patients (4 imputed)): 14.0%
Patients with improvement in WHO FC at Week 12 (patients with PoPH [2]; FAS, macitentan group, 9 patients): 20.9%
Patients with worsening in WHO FC at Week 24 (patients with PoPH [2]; MTS without imputation, macitentan in both periods, 2/34): 5.9%
Patients with no change in WHO FC at Week 24 (patients with PoPH [2]; MTS without imputation, macitentan in both periods, 21/34): 61.8%
Patients with worsening in WHO FC at Week 12 after macitentan initiation in OL period (patients with PoPH [2]; MTS without imputation, vs macitentan baseline, 3/35): 8.6%
Patients with no change in WHO FC at Week 12 after macitentan initiation in OL period (patients with PoPH [2]; MTS without imputation, vs macitentan baseline, 24/35): 68.6%
